The source made the active and inactive calls.
Tests used:
Estrogen receptor beta [1] = biological target: T1, Estrogen receptor beta (Homo sapiens, UniProt Q92731); assay: blockers of SRC-3 recruitment to ERβ – biochemical, ELISA, streptavidin-HRP readout, orthogonal assay, confirmation (AID 1060)
Estrogen receptor = biological target: T2, Estrogen receptor (Homo sapiens, UniProt P03372);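 note: potency for inhibiting coactivator peptide recruitment to the receptor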
T2 sequence (P03372 whole entry): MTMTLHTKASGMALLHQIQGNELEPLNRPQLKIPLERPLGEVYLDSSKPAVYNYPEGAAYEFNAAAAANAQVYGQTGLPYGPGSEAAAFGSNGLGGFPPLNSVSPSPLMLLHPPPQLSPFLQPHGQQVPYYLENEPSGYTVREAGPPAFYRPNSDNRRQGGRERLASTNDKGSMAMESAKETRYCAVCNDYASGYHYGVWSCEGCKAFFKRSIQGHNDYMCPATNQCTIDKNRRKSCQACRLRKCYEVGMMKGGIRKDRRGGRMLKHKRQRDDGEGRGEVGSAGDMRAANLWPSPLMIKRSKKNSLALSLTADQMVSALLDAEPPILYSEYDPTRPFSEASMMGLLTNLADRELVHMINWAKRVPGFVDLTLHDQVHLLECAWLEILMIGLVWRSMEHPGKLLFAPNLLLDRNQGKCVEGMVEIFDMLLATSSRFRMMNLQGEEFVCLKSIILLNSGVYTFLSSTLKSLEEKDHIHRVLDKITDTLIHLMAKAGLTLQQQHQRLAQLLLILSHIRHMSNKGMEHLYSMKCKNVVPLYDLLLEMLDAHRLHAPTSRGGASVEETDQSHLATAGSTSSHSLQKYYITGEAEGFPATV

Estrogen receptor beta [2] = biological target: T1, Estrogen receptor beta
[3] = biological target: T3, Alkaline phosphatase, tissue-nonspecific isozyme (Homo sapiens, UniProt P05186)
T3 sequence (P05186 whole entry): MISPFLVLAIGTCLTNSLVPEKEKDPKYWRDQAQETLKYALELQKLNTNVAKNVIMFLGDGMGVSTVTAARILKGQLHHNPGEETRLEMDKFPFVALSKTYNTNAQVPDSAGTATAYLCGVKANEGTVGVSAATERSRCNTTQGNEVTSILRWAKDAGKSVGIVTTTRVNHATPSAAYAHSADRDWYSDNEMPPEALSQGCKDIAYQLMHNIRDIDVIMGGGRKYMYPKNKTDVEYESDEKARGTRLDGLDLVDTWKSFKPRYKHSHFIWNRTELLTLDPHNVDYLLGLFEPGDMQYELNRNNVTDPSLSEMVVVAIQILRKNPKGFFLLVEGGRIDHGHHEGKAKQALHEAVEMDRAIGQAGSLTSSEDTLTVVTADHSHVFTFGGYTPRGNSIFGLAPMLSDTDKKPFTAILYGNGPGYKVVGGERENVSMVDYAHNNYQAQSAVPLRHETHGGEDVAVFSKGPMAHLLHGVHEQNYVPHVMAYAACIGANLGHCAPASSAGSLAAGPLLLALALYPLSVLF

H9c2 = assay: cells; assay type: functional, cell-based; conditions: Rattus norvegicus, H9c2, Myocardium;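 note: confirmatory concentration-response retest of ultra-high-throughput screening hits for modulation of myocardial damage; cell death induced by hydrogen peroxide oxidative stress; compound pretreatment for 60 min then peroxide exposure for 2 h; potency is for protecting the cells against peroxide damage rather than for killing them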
INS1 = assay: INS-1E survival protection against cytokine death – cell-based, luminescence, retest, dose response (AID 449756); assay type: functional; conditions: Rattus norvegicus;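 note: cell death triggered by IL-1 beta plus TNF-alpha plus IFN-gamma mixture; protective hits raise ATP signal compared with cytokine alone wells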
Cytochrome P450 2C9 = Cytochrome P450 2C9 (Homo sapiens, UniProt P11712)
H4 = assay: Luminescence Cell-Based Dose Response HTS to Identify Activators of 5'UTR Stem-Loop Driven Prion Protein mRNA Translation in H4 Neuroglioblastoma Cells. [Related pubchem assays: 1829 (Project Summary), 1814 (Primary HTS)]; assay type: functional; conditions: Homo sapiens
[4] = biological target: T4, Tyrosine-protein phosphatase non-receptor type 7 (Homo sapiens, UniProt P35236); assay: SAR analysis of chemical inhibitors of HePTP using a Fluorescent assay - Set 2. [Related pubchem assays (depositor defined):AID1059, AID1077, AID1661, AID2085, AID521]; assay type: functional
T4 sequence (P35236 whole entry): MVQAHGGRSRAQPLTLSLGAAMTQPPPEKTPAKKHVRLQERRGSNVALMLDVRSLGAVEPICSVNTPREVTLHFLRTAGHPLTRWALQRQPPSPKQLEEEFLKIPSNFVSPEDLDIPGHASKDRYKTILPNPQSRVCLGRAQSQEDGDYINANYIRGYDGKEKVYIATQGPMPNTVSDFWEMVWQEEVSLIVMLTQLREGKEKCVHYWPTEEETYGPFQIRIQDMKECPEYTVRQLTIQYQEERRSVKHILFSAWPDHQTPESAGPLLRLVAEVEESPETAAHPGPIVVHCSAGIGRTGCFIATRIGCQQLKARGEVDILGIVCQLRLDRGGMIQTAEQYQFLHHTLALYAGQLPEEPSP

[5] = biological target: Dual specificity protein phosphatase 3 (Homo sapiens, UniProt P51452); assay: SAR VHR1 Fluorescent Assay for In Vitro dose response studies Set 2. [Related pubchem assays (depositor defined):AID1654, AID1661, AID1878]; assay type: functional
[6] = Luminescence Cell-Based Dose Confirmation HTS to Identify Activators of 5'UTR Stem-Loop Driven Alpha-Synuclein mRNA Translation in H4 Neuroglioblastoma Cells. [Related pubchem assays: 1829 (Project Summary), 1814 (Primary HTS)]; assay type: functional
[7] = HGIII-sPLA2 enzyme inhibition potency – biochemical, QFRET, IC50, dose response (AID 743457);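 note: green fluorescence rise as the enzyme cleaves BODIPY PC-A2 in liposomes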
[8] = Luminescence Cell-Based Dose Response HTS to Identify Activators of Luciferase Translation or Activity in H4 […] Cells. [Related pubchem assays: 1829 (Project Summary), 1814 (Primary HTS)]; assay type: functional
[9] = biological target: Alkaline phosphatase, placental type (Homo sapiens, UniProt P05187); assay: human placental alkaline phosphatase inhibition – biochemical, luminescence, confirmation (AID 1512); assay type: functional
HeLa = assay: Cytotoxicity counterscreen assay for transcriptional activators of heat shock protein 70 (Hsp70). [Related pubchem assays: 1203, 1252 ]; assay type: functional; conditions: Homo sapiens;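 note: cells exposed to compound for 16 hours before readout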
[10] = biological target: Acyl-homoserine lactone acylase PvdQ (Pseudomonas aeruginosa (strain LESB58), UniProt Q9I194); assay: PvdQ acylase enzyme activity blockers – biochemical, fluorescence, plate reader and imaging, cherry-picks, dose response (AID 493231)
[11] = blockers of bursicon-stimulated LGR2 cAMP reporter – cell-based, HEK293, CRE-luciferase reporter, cherry pick, set 2, dose response (AID 743343); assay type: functional;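 note: transfected cells were stimulated with diluted bursicon conditioned medium after compound addition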
[12] = biological target: Lysosomal acid glucosylceramidase (Homo sapiens, UniProt P04062); assay: Dose response cell-based high throughput screening assay to identify enhancers of beta-glucosidase activity. [Related pubchem assays: 784 ]; assay type: functional
HEK293 = assay: EBV LMP1 TES2 canonical NF-kB signalling blockers – cell-based, HEK293, luciferase, cherry-pick, dose response (AID 588343); assay type: functional; conditions: Homo sapiens
[13] = viability loss in HEK293 cells – cell-based, plate reader, cherry-picked samples, cytotoxicity control, dose response (AID 743446); assay type: functional
[14] = A549 cell cytotoxicity, dose response, cytotoxicity control, plate reader, cherry-pick, antagonist series (AID 743412); assay type: functional, cell-based
[15] = blockade of melanocortin 4 receptor signaling – cell-based, plate reader, cherry pick, counter-screen for LGR2 antagonist project, dose response (AID 743444); assay type: functional;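 note: transfected HEK 293 cells stimulated with alpha-MSH peptide; potency of inhibitors of the alpha-MSH evoked signal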
[16] = toxicity toward HepG2 liver cells – cell-based, plate reader, cherry-pick, antagonist series, cytotoxicity control, dose response (AID 743416); assay type: functional
[17] = biological target: FAD-linked sulfhydryl oxidase ALR (Homo sapiens, UniProt P55789); assay: ALR-catalysed DTT oxidation blockers – biochemical, H2O2 detection, luminescence, cherry-pick, dose response (AID 493248)
[18] = Luminescence Cell-Based Dose Response HTS to Identify Inhibitors of 5'UTR Stem-Loop Driven Prion Protein mRNA Translation in H4 Neuroglioblastoma Cells. [Related pubchem assays: 1827 (Project Summary), 1813 (Primary HTS)]; assay type: functional
[19] = alpha-synuclein stem-loop luciferase translation blockers – H4 neuroglioma cells, luminescence, confirmation (AID 1988); assay type: functional, cell-based

Chain of Lysosomal acid glucosylceramidase (P04062 whole entry): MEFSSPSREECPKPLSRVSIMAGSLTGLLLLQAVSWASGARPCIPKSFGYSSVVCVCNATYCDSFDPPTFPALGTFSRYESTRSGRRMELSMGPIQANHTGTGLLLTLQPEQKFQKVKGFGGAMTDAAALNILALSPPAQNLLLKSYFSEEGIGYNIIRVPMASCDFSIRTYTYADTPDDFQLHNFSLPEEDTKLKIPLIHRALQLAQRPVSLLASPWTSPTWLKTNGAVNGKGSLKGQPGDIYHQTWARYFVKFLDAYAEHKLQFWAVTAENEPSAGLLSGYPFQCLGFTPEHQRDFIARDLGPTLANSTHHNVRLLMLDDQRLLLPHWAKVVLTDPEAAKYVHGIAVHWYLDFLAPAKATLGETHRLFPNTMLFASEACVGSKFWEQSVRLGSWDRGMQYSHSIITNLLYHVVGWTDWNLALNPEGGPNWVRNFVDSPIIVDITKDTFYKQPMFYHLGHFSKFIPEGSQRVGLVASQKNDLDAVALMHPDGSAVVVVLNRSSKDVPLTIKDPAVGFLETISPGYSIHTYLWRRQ
T1 sequence (Q92731 whole entry): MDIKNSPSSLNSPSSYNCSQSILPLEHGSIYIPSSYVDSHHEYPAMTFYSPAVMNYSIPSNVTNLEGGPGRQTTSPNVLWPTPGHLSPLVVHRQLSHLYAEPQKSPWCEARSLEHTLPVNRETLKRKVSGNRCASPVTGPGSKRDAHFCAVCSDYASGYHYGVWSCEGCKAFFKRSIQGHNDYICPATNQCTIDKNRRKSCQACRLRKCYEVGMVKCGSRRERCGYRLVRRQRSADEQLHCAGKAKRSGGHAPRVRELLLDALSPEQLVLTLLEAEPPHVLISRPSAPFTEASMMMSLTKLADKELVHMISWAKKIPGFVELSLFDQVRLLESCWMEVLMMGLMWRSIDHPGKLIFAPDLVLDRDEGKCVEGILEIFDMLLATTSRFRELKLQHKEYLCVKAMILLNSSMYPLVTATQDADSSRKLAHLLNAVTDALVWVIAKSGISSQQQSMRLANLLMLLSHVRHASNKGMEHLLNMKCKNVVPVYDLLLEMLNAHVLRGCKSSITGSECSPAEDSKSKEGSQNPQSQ
Chain of Acyl-homoserine lactone acylase PvdQ (Q9I194 24-193 limits assumed): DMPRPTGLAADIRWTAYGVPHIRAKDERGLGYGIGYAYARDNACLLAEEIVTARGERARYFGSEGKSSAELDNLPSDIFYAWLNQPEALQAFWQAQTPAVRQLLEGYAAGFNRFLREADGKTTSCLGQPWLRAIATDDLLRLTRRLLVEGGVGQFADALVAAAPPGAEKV
Chain of Acyl-homoserine lactone acylase PvdQ (Q9I194 217-762 limits assumed): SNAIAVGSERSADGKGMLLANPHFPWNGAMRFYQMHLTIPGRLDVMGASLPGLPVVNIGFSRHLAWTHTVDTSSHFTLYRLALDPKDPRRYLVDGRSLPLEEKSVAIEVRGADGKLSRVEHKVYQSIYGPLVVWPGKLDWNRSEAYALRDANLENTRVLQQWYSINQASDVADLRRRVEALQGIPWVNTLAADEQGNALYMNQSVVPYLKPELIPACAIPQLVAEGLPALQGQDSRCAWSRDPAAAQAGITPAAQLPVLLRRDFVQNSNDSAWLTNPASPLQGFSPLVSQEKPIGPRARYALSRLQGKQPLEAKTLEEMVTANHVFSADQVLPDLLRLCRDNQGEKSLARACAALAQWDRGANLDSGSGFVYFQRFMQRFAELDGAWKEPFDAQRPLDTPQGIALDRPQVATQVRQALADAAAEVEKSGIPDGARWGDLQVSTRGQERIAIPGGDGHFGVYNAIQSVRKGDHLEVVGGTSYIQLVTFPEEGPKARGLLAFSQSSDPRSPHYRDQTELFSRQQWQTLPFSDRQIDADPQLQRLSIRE
Chain of Dual specificity protein phosphatase 3 (P51452 whole entry): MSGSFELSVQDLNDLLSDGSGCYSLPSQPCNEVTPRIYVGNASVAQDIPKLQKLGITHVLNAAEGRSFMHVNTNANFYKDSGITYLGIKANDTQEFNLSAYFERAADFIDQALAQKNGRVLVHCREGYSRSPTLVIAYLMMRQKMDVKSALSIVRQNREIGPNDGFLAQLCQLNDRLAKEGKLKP
Chain of FAD-linked sulfhydryl oxidase ALR (P55789 whole entry): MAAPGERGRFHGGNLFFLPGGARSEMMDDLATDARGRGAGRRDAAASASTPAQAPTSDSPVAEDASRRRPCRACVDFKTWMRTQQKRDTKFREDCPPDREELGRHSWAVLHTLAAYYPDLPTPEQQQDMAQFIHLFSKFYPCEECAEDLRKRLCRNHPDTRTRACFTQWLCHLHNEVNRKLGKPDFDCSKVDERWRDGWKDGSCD
Chain of Cytochrome P450 2C9 (P11712 whole entry): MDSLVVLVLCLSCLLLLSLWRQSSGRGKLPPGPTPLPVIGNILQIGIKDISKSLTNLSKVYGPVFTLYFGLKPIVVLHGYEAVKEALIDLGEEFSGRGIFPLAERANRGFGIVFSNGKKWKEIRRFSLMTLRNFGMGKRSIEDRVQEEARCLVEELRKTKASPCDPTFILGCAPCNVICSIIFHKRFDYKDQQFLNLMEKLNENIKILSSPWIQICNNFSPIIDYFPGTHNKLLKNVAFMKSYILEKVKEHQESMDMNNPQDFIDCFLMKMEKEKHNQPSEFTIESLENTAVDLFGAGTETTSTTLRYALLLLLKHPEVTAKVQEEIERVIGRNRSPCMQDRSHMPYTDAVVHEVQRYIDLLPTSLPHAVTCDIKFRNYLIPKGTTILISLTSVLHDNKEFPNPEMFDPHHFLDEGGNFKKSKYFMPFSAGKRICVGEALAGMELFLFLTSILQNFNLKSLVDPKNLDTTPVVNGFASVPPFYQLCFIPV
Chain of Alkaline phosphatase, placental type (P05187 whole entry): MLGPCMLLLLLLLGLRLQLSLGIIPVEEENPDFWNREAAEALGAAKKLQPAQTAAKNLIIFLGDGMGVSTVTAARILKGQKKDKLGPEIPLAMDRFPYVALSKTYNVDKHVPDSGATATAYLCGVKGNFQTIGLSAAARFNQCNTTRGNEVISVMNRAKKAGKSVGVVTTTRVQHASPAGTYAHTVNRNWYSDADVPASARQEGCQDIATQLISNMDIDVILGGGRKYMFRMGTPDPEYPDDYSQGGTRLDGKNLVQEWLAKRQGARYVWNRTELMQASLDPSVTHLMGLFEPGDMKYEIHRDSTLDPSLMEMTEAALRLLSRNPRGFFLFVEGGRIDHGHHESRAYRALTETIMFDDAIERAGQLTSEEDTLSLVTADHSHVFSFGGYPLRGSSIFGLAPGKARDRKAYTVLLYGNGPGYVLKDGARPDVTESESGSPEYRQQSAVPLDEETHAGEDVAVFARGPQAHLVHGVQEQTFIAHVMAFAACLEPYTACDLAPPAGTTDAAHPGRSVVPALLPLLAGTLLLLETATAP

With `COc1ccc(Cl)cc1NC(=O)c1ocnc1C` the IC50 (Estrogen receptor beta [1]) was > 109 µM (not active), the IC50 (Estrogen receptor) was 24.9 µM (active) and the IC50 (Estrogen receptor beta [2]) was 8.77 µM (active).
In the case of `O=C(NCc1ccccc1)NC1(C(=O)N2CCN(c3ccccc3)CC2)CCCCC1`, the EC50 [3] was > 100 µM (not active).
In the case of `Cc1ccc2c(C)nc(Nc3nc(O)cc(CSc4nc5ccccc5[nH]4)n3)nc2c1`, the IC50 (H9c2) was > 79 µM (inactive), the EC50 [3] was 82.2 µM (not active) and the AC50 (INS1) was 61.7 µM (active). For the same molecule, the AC50 (Cytochrome P450 2C9) was 0.1 µM (inconclusive).
With `Cc1ccc(NC(S)=NNC(=O)c2nn(C)c(C)c2Cl)cc1` the EC50 (H4) was 10.9 µM (active), the IC50 [4] was > 100 µM (inactive) and the IC50 [5] was > 100 µM (inactive). The EC50 [6] was 6.19 µM (active), the IC50 [7] was > 122 µM (inactive) and the EC50 [8] was 12 µM (active). The IC50 [9] was > 100 µM (inactive).
With `O=C1NC(=O)C2(COC3(CCCC3)OC2)S1` the CC50 (HeLa) was > 99 µM (not active).
For `COc1ccc(CNCc2cccc(Cl)c2)cc1`, the AC50 [10] was 6.75 µM (active).
In the case of `CN(C)c1ccc(-c2nc3ccccc3n2C)cc1`, the AC50 [11] was 4.7 µM (active), the EC50 [12] was > 50 µM (not active) and the AC50 (HEK293) was 2.11 µM (active). The AC50 [13] was 32.2 µM (active), the AC50 [14] was 38.2 µM (active) and the AC50 [15] was 4.64 µM (active). For the same molecule, the AC50 [16] was > 52 µM (inactive), the AC50 [17] was 6.13 µM (active) and the EC50 [18] was 12.7 µM (active). For the same molecule, the EC50 [19] was 7.88 µM (active).
In the case of `O=C1CC(=O)N(c2ccc3c(c2)OCO3)C(=O)N1`, the EC50 [12] was > 50 µM (not active).
For `COc1ccc(OC)c(C(=S)NCc2ccc(F)c(C(F)(F)F)c2)c1`, the IC50 [4] was 15.5 µM (active) and the IC50 [5] was 60.8 µM (active).
In the case of `N#CCN(N=Nc1ccccc1)c1ccccc1`, the AC50 [10] was 9.41 µM (active).
